Measured values from patent US20250186403A1 (ARIZONA BOARD OF REGENTS ON BEHALF OF THE UNIVERSITY OF …, priority 2022, published 2025).
Values joined by “and” are separate entries in the source; they are usually repeats but may differ in a detail not shown here. Equal entries are not always repeated.

Columns and labels:
Cne-WT and Cne-Mut = experiment: Resazurin-based HTS growth assay, dose-response IC50; format: cell-based, Cryptococcus neoformans; conditions: 24 h
Description: HTS assay: A resazurin-based growth assay was developed for primary screening, employing two strains of Cne, the Cne-WT with natural intein and Cne-Mut, the mutant strain without intein. The assay was first standardized in 96 well formats and later optimized for 384 well plates. The HTS was done at ICCB-Longwood screening facility, Harvard University, Boston, USA. For HTS, the fungal cells were grown in SD broth overnight and diluted in SD broth to an optical density (OD) 0.5 at 600 nm. The cell suspension is further diluted 1:10 in RPMI 1640 media with 0.165 M MOPS, 2% glucose (RPMI-MOPS) so that the final OD will be 0.05. […] The conversion of resazurin to resorufin by live cells were estimated by reading fluorescence at Ex 550 nm and Em 590 nm using a plate reader (EnVision, Perkin Elmer). Additionally, the absorbance was also read at 600 nm using the plate reader (EnVision, Perkin Elmer). […] The ratio of fluorescence reading in Cne-WT and Cne-Mut was used to advance positive compounds.
Concentration series (0.02 to 50 µM) of test compounds and equalizing volume of DMSO were dispensed using a liquid handler (D300 e, Hewlett Packard) to the 384 well plates. Following the addition of Cne cell suspension, the assay plates were incubated for 24 h, and fluorescence readings of resorufin were taken as explained for single concentration screening.

[1] = test system: Prp8 intein splicing in Cne-WT; experiment: Western blot, in vivo Prp8 intein splicing in Cne; format: cell-based, Cryptococcus neoformans; conditions: Cne-WT incubated with CMN 18 h
Description: TCEP is added to a final concentration of 100 µM and incubated for 24 h. The substrate Nano-Glo luciferase (Promega) was added, and the resulting luminescence was read. IC50 was calculated using GraphPad prism. […] TCEP was added to a concentration of 1 mM and incubated for 24 h. From this reaction mixture, 10 μl was mixed with an equal volume of 2×SDA-PAGE loading dye and loaded onto 12% SDS-PAGE gel without boiling the sample. The gel was scanned with UV using Chemidoc (Bio Rad), and band intensities were quantified using Image Lab software. […] Cells were harvested and washed in PBS, lysed with bead lyser, and centrifuged at 10,000 rpm. An equal quantity of protein (50 μg) from each treatment was loaded onto 12% SDS-PAGE and blotted onto the NC membrane, blocked with 5% skimmed milk. The membrane was probed with anti-prp8 intein rabbit polyclonal sera, followed by goat anti-rabbit HRP antibody. Signals were developed using a chemiluminescent kit. The density of the spliced intein bands (˜20 kDa) were quantified using Image lab software. A band at ˜130 kDa is uncharacterized, as explained below. NC: nitrocellulose. Abs: absorbance
DMSO was used as a control. An equal volume of freshly grown Cne-WT culture (0.2 OD at 600 nm) was added to obtain the final absorbance of 0.1 OD. […] Intensities of bands were quantified by image lab software and compared with that of control.

[2] = test system: recombinant Cne-Prp8 intein; experiment: Thermal shift assay; format: binding, Cryptococcus neoformans
Description: The Tm values were calculated by Thermal shift software. […] The assay was repeated three times. […]
Each treatment was done in quadruplicate. The mixture was incubated at room temperature for an hour before transferring to the QuantStudio 5 real-time PCR system (Applied Biosystems) and run with an increasing temperature from 20° C. to 90° C. The temperature at which there was 50% of the peak fluorescence (50% denaturation) was considered as Tm. The analysis was done using the Thermal Shift Assay software (Thermo Fischer Scientific). A graph was drawn using the GraphPad prism Version 9.1.0 after normalizing the fluorescent values. The treatment groups were compared with Student's t-test.

[3] = Cytotoxicity (Cell Counting Kit-8); format: cell-based, murine; conditions: mouse, PMA-differentiated RAW 264.7 macrophage cells, PMA-differentiated RAW 264.7 cells
Description: FIGS. 4A, 4B, and 4C show in vitro and in vivo toxicity. […] A549 and RAW 264.7 cells were grown in 96 well plates till 70% confluent. RAW 264.7 cells were differentiated into macrophages using PMA. […] The cell viability was estimated by Cell Counting Kit-8 (GlpBio, CA, USA), and absorbance was read at 450 nm using microplate reader Synergy H1 (BioTek). CC50 was calculated by GraphPad prism. […] Abs: absorbance. […] Bodyweight and other parameters were monitored daily (Table 3).
Cells were seeded in 96 well plates at 1.5×10^4 cells/well of 96 well plates in DMEM media and incubated at a CO2 incubator at 37° C. for 24 h. For differentiation to macrophages, the media was replaced with fresh media containing 100 nM PMA and further incubated for 48 h in a CO2 incubator.

**Q.** Which “difference in IC50 (Cne-Mut vs Cne-WT)” value (Cne-WT and Cne-Mut) does the source give for CNc1ccc2oc(C[C@H]3O[C@@]4(CC[C@H]3C)O[C@H]([C@H](C)C(=O)c3ccc[nH]3)[C@H](C)C[C@H]4C)nc2c1C(=O)O [CMN, calcimycin] here?
**A.** 2.5 fold

**Q.** What about the “spliced intein (approximately 20 kDa) in western blot” value [1] of the same compound?
**A.** dose-dependent reduction in spliced intein

**Q.** And the “ΔTm difference between CMN and DMSO” value ([2]; 1.2 µM CMN)?
**A.** 3 °C

**Q.** What about the “Tm of CnePrp8 intein” value ([2]; with 1.2 µM CMN (DMSO control 50.8±0.2)) of the same compound?
**A.** 53.8±0.2 °C

**Q.** What about the CC50 at 48 h [3] of the same compound?
**A.** 8.6 µM and 4.5 µg/mL
